{"source": "patent US9505763B2", "about": "“Cancer treatment using BMP inhibitor” (Vanderbilt University, priority 2011, dated 2016)", "key": {"[1]": {"tested_on": "A549 cells", "assay": "Clonogenic growth assay", "format": "cell-based", "settings": "1 μM, 2 weeks", "description": "(§1) Clonigenic Growth Assay. A549 and H1299 cells were plated into 6 well plates with 500 cells per well. The next day the cells were treated with DMSO or a BMP receptor antagonist for 2 weeks. The colonies were stained with Diff-Quick (IMEB Inc. San Marcos, Calif.) and the total number of colonies per well counted."}, "[2]": {"tested_on": "H1299 cells", "assay": "Clonogenic growth assay", "format": "cell-based", "settings": "1 μM, 2 weeks", "description": "as §1"}, "[3]": {"tested_on": "A549 cells", "assay": "Ethidium bromide uptake cell death assay", "format": "cell-based", "settings": "48 hours, 10 μM Dorsomorphin or 1 μM selective antagonist", "description": "Cell Death Assay: A549 and H1299 cells were plated in 6 well plates with 10^6 cells per well. Cells were treated with DMSO or a BMP receptor antagonist for 12 and 48 hours. Adherent and floating cells were harvested and incubated with 0.1 mg/ml of ethidium bromide. Immediately after staining approximately 100 cells were counted and the percentage of cells that took up ethidium bromide was determined."}, "[4]": {"tested_on": "H1299 cells", "assay": "Trypan blue cell death counts", "format": "cell-based", "settings": "4 days"}, "[5]": {"tested_on": "H1299 cells", "assay": "Amine-reactive fluorescent dye (LIVE/DEAD) flow cytometry", "format": "cell-based", "description": "Cell death was also determined using the LIVE/DEAD fixable dead cell stain kit as per manufacturer's instructions (Life Technologies, L-23101). This assay employs an amine-reactive fluorescent dye, which in compromised membranes the dye reacts with free amines on the cell interior in dead cells. H1299 cells were treated with DMH2 for 48 hours and the percentage of dead cells then detected by flow cytometry."}, "[6]": {"tested_on": "AMP kinase", "settings": "compared with Dorsomorphin and LDN; cited from earlier work"}, "[7]": {"target": "T1, TGFβ receptor alk5 (Homo sapiens, UniProt P36897)", "T1 sequence (P36897 34-503)": "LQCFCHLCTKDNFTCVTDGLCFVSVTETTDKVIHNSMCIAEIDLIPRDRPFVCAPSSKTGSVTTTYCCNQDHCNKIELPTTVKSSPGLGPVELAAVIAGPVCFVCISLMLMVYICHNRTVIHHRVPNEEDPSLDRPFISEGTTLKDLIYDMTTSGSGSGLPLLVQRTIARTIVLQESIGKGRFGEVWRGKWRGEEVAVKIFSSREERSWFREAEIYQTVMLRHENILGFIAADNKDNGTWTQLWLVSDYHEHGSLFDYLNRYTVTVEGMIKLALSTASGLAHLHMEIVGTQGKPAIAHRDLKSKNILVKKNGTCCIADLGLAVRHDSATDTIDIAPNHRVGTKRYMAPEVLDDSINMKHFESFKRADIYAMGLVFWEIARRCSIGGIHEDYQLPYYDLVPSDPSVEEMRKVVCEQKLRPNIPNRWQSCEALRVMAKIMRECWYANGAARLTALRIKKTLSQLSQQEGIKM", "settings": "compared with Dorsomorphin and LDN; cited from earlier work"}}}
{"compound": "CN(C)CCCOc1ccc(-c2cnc3c(-c4ccnc5ccccc45)cnn3c2)cc1", "note": "[DMH2]", "values": [{"measurement": "clonogenic growth", "setting": "[1]", "result": "inhibited more by DMH2 and LDN than DMH1"}, {"measurement": "clonogenic growth", "setting": "[2]", "result": "inhibited more by DMH2 and LDN than DMH1"}, {"measurement": "cell death (percentage of cells taking up ethidium bromide)", "setting": "[3]", "result": "significant increase in cell death"}, {"measurement": "percentage of dead cells (trypan blue)", "setting": "[4]; H1299 cultured in SFM, 1 μM, compared with DMEM 5% FCS", "result": "even higher"}, {"measurement": "cell death (percentage of dead cells, trypan blue)", "setting": "[4]; H1299 in DMEM 5% FCS, 1 μM and 5 μM", "result": "significant increased in cell death, which was dose dependent"}, {"measurement": "cell death (amine-reactive fluorescent dye)", "setting": "[5]", "result": "induced cell death"}, {"measurement": "activity for AMP kinase (comparison)", "setting": "[6]", "result": "less activity"}, {"measurement": "activity for TGFβ receptor alk5 (comparison)", "setting": "[7]", "result": "less activity"}]}
